Our source for the IC50 values is US11530218B2, “Spiro compounds as inhibitors of KRAS” (Incyte Corporation, priority 2020, dated 2022).

KRAS G12D, sequence (P01116 1-188 isoform P01116-2 G12D): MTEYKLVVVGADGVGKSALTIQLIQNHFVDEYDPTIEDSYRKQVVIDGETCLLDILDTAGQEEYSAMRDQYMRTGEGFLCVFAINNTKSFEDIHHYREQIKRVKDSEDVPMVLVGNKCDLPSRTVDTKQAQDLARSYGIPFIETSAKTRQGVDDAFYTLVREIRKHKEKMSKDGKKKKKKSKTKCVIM

For this assay, the target named is KRAS G12D (Homo sapiens, UniProt P01116, G12D). The experiment in a line: KRAS G12D GDP-GTP exchange assay (bodipy-GDP/GppNHp, SOS1). It is filed as biochemical. The settings on record: bodipy loaded KRAS G12D 2.5 nM, 4 hours incubation after GppNHp-SOS1; read-out: G12D_exchange (KRAS_G12D exchange assay IC50). Here is the method:
The inhibitor potency of the exemplified compounds was determined in a fluorescence based guanine nucleotide exchange assay, which measures the exchange of bodipy-GDP (fluorescently labeled GDP) for GppNHp (Non-hydrolyzable GTP analog) to generate the active state of KRAS in the presence of SOS1 (guanine nucleotide exchange factor). Inhibitors were serially diluted in DMSO and a volume of 0.1 μL was transferred to the wells of a black low volume 384-well plate. 5 μL/well volume of bodipy-loaded KRAS G12C diluted to 5 nM in assay buffer (25 mM Hepes pH 7.5, 50 mM NaCl, 10 mM MgCl2 and 0.01% Brij-35) was added to the plate and pre-incubated with inhibitor for 2 hours at ambient temperature. Appropriate controls (enzyme with no inhibitor or with a G12C inhibitor (AMG-510)) were included on the plate. The exchange was initiated by the addition of a 5 μL/well volume containing 1 mM GppNHp and 300 nM SOS1 in assay buffer. The 10 μL/well reaction concentration of the bodipy-loaded KRAS G12C, GppNHp, and SOS1 were 2.5 nM, 500 uM, and 150 nM, respectively. The reaction plates were incubated at ambient temperature for 2 hours, a time estimated for complete GDP-GTP exchange in the absence of inhibitor. For the KRAS G12D and G12V mutants, similar guanine nucleotide exchange assays were used with 2.5 nM as final concentration for the bodipy loaded KRAS proteins and with 4 hours and 3 hours incubation after adding GppNHp-SOS1 mixture for G12D and G12V respectively. A cyclic peptide described to selectively bind G12D mutant (Sakamoto et al., BBRC 484.3 (2017), 605-611) or internal compounds with confirmed binding were used as positive controls in the assay plates. Fluorescence intensities were measured on a PheraStar plate reader instrument (BMG Labtech) with excitation at 485 nm and emission at 520 nm.
Either GraphPad prism or XLfit was used to analyze the data. The IC50 values were derived by fitting the data to a four parameter logistic equation producing a sigmoidal dose-response curve with a variable Hill coefficient. Prism equation: Y=Bottom+(Top−Bottom)/(1+10^((Log IC50−X)*Hill slope)); XLfit equation: Y=(A+((B−A)/(1+((X/C)^D)))) where X is the logarithm of inhibitor concentration and Y is the response.
Consider `Cc1cc2c3c(c(N4CC(N(C)C)C4)nc2c(F)c1-c1cc(O)cc2ccccc12)NC(=O)C31CCCNC1` (single isomer, unassigned) [Example 19b, 4′-(3-(dimethylamino)azetidin-1-yl)-6′-fluoro-7′-(3-hydroxynaphthalen-1-yl)-8′-methylspiro[piperidine-3,1′-pyrrolo[2,3-c]quinolin]-2′(3′H)-one], for which the 50% inhibitory concentration (IC50) – broadly, the concentration that gives 50% inhibition – fell in the range of 1000 to 5000 nM.
With `CN(C)C1CN(c2nc3c(F)c(-c4cc(O)cc5ccc(Cl)cc45)c(Cl)cc3c3c2NC(=O)C32CCCNC2)C1` (single isomer, unassigned) [Example 20b, 8′-chloro-7′-(7-chloro-3-hydroxynaphthalen-1-yl)-4′-(3-(dimethylamino)azetidin-1-yl)-6′-fluorospiro[piperidine-3,1′-pyrrolo[2,3-c]quinolin]-2′(3′H)-one] the figure was 1000 to 5000 nM; with `CN(C)C1CN(c2nc3c(F)c(-c4cc(O)cc5ccccc45)c(Cl)cc3c3c2NC(=O)C32CC3CC2CN3)C1` (single isomer, unassigned) [Example 21b, 8′-chloro-4′-(3-(dimethylamino)azetidin-1-yl)-6′-fluoro-7′-(3-hydroxynaphthalen-1-yl)-5-azaspiro[bicyclo[2.2.1]heptane-2,1′-pyrrolo[2,3-c]quinolin]-2′(3′H)-one], 1000 to 5000 nM; with `CN(C)C1CN(c2nc3c(F)c(-c4cc(O)cc5ccccc45)c(CCCC#N)cc3c3c2NC(=O)C32CCCNC2)C1` (single isomer, unassigned) [Example 23b, 4-(4′-(3-(dimethylamino)azetidin-1-yl)-6′-fluoro-7′-(3-hydroxynaphthalen-1-yl)-2′-oxo-2′,3′-dihydrospiro[piperidine-3,1′-pyrrolo[2,3-c]quinolin]-8′-yl)butanenitrile], 100 to 1000 nM.
With `CN(C)C1CN(c2nc3c(F)c(-c4cc(O)cc5ccccc45)c(CC#N)cc3c3c2NC(=O)C32CCCNC2)C1` (single isomer, unassigned) [Example 24a, 2-(4′-(3-(dimethylamino)azetidin-1-yl)-6′-fluoro-7′-(3-hydroxynaphthalen-1-yl)-2′-oxo-2′,3′-dihydrospiro[piperidine-3,1′-pyrrolo[2,3-c]quinolin]-8′-yl)acetonitrile] the figure was 1000 to 5000 nM.
For `CN(C)C1CN(c2nc3c(F)c(-c4cc(O)cc5ccccc45)c(CCC#N)cc3c3c2NC(=O)C32CCCNC2)C1` (single isomer, unassigned) [Example 25b, 3-(4′-(3-(dimethylamino)azetidin-1-yl)-6′-fluoro-7′-(3-hydroxynaphthalen-1-yl)-2′-oxo-2′,3′-dihydrospiro[piperidine-3,1′-pyrrolo[2,3-c]quinolin]-8′-yl)propanenitrile] the value was 1000 to 5000 nM.
`CN(C)C1CN(c2nc3c(F)c(-c4cc(O)cc5ccccc45)c(Cc4ccccc4Cl)cc3c3c2NC(=O)C32CCCNC2)C1` (single isomer, unassigned) [Example 26b, 8′-(2-chlorobenzyl)-4′-(3-(dimethylamino)azetidin-1-yl)-6′-fluoro-7′-(3-hydroxynaphthalen-1-yl)spiro[piperidine-3,1′-pyrrolo[2,3-c]quinolin]-2′(3′H)-one]: the IC50 lay in the range of 1000 to 5000 nM.
On to `CN(C)C1CN(c2nc3c(F)c(-c4cc(O)cc5ccccc45)c(Cc4ccccc4C#N)cc3c3c2NC(=O)C32CCCNC2)C1` (single isomer, unassigned) [Example 27b, 2-((4′-(3-(dimethylamino)azetidin-1-yl)-6′-fluoro-7′-(3-hydroxynaphthalen-1-yl)-2′-oxo-2′,3′-dihydrospiro[piperidine-3,1′-pyrrolo[2,3-c]quinolin]-8′-yl)methyl)benzonitrile], for which the IC50 lay in the range of 1000 to 5000 nM.
For the compound `CN(C)C1CN(c2nc3c(F)c(-c4cc(O)cc5ccccc45)c(CCCC#N)cc3c3c2NCC32CCCNC2)C1` (single isomer, unassigned) [Example 28b, 4-(4′-(3-(dimethylamino)azetidin-1-yl)-6′-fluoro-7′-(3-hydroxynaphthalen-1-yl)-2′,3′-dihydrospiro[piperidine-3,1′-pyrrolo[2,3-c]quinolin]-8′-yl)butanenitrile], the IC50 fell in the range of 1000 to 5000 nM.
